# Assays:
# Assay in all cases: relative viability (nuclei count vs DMSO), 5 days (fraction); higher = more cells survive
# COR-L23 = test system: COR-L23
# Procedure, shortened: (§1)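 For relative viability, nuclei counts in treated wells were divided by those in vehicle wells. Lung cancer cell lines had been pin-tool dosed in 1536-well plates the day after seeding and cultured for 5 days, then fixed and stained in one step (final 0.05% Triton X-100, 1% formaldehyde, 1 ug/ml Hoechst) and imaged at 4×. Doses were one drug alone or a fixed anchor-drug dose plus five library-drug doses (not always all listed) in √10 steps, and values are duplicate-plate medians.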
# ChaGo-K-1 = test system: ChaGo-K-1
# Procedure, shortened: as §1
# EPLC-272H = test system: EPLC-272H
# Procedure, shortened: as §1
# H3255 = test system: H3255
# Procedure, shortened: as §1
# HARA = test system: HARA
# Procedure, shortened: as §1
# HCC-78 = test system: HCC-78
# Procedure, shortened: as §1
# HOP-62 = test system: HOP-62
# Procedure, shortened: as §1
# LCLC-97TM1 = test system: LCLC-97TM1
# Procedure, shortened: as §1
# LXF-289 = test system: LXF-289
# Procedure, shortened: as §1
# NCI-H1437 = test system: NCI-H1437
# Procedure, shortened: as §1
# NCI-H1650 = test system: NCI-H1650
# Procedure, shortened: as §1
# NCI-H1666 = test system: NCI-H1666
# Procedure, shortened: as §1
# NCI-H2085 = test system: NCI-H2085
# Procedure, shortened: as §1
# NCI-H2087 = test system: NCI-H2087
# Procedure, shortened: as §1
# NCI-H2126 = test system: NCI-H2126
# Procedure, shortened: as §1
# NCI-H3122 = test system: NCI-H3122
# Procedure, shortened: as §1
# NCI-H441 = test system: NCI-H441
# Procedure, shortened: as §1
# NCI-H596 = test system: NCI-H596
# Procedure, shortened: as §1
# NCI-H661 = test system: NCI-H661
# Procedure, shortened: as §1
# PC-14 = test system: PC-14
# Procedure, shortened: as §1
compound,measurement,setting,value
CCNC(=O)c1noc(-c2cc(C(C)C)c(O)cc2O)c1-c1ccc(CN2CCOCC2)cc1 [Luminespib] + CC(C)C[C@H](NC(=O)[C@H](Cc1ccccc1)NC(=O)c1cnccn1)B(O)O [Bortezomib] (partner 0.002 µM),relative viability,COR-L23; first compound 0.002 µM,1.02
same,relative viability,COR-L23; first compound 0.006325 µM,0.85
same,relative viability,COR-L23; first compound 0.02 µM,0.718
same,relative viability,COR-L23; first compound 0.06325 µM,0.079
same,relative viability,COR-L23; first compound 0.2 µM,0.079
same,relative viability,ChaGo-K-1; first compound 0.002 µM,1.11
same,relative viability,ChaGo-K-1; first compound 0.02 µM,0.998
same,relative viability,ChaGo-K-1; first compound 0.06325 µM,0.528
same,relative viability,ChaGo-K-1; first compound 0.2 µM,0.294
same,relative viability,EPLC-272H; first compound 0.006325 µM,0.83
same,relative viability,EPLC-272H; first compound 0.02 µM,0.678
same,relative viability,EPLC-272H; first compound 0.06325 µM,0.913
same,relative viability,EPLC-272H; first compound 0.2 µM,0.293
same,relative viability,H3255; first compound 0.002 µM,0.615
same,relative viability,H3255; first compound 0.006325 µM,0.466
same,relative viability,H3255; first compound 0.02 µM,0.472
same,relative viability,H3255; first compound 0.06325 µM,0.376
same,relative viability,H3255; first compound 0.2 µM,0.194
same,relative viability,HARA; first compound 0.002 µM,1.12
same,relative viability,HARA; first compound 0.006325 µM,1
same,relative viability,HARA; first compound 0.02 µM,1.14
same,relative viability,HARA; first compound 0.06325 µM,0.474
same,relative viability,HARA; first compound 0.2 µM,0.0833
same,relative viability,HCC-78; first compound 0.002 µM,0.441
same,relative viability,HCC-78; first compound 0.006325 µM,0.527
same,relative viability,HCC-78; first compound 0.06325 µM,0.745
same,relative viability,HCC-78; first compound 0.2 µM,0.262
same,relative viability,HOP-62; first compound 0.002 µM,0.652
same,relative viability,HOP-62; first compound 0.006325 µM,0.924
same,relative viability,HOP-62; first compound 0.02 µM,0.852
same,relative viability,HOP-62; first compound 0.06325 µM,0.856
same,relative viability,HOP-62; first compound 0.2 µM,0.0907
same,relative viability,LCLC-97TM1; first compound 0.002 µM,0.876
same,relative viability,LCLC-97TM1; first compound 0.006325 µM,0.635
same,relative viability,LCLC-97TM1; first compound 0.02 µM,0.638
same,relative viability,LCLC-97TM1; first compound 0.06325 µM,0.0526
same,relative viability,LCLC-97TM1; first compound 0.2 µM,0.0579
same,relative viability,LXF-289; first compound 0.002 µM,0.969
same,relative viability,LXF-289; first compound 0.006325 µM,0.951
same,relative viability,LXF-289; first compound 0.02 µM,1.04
same,relative viability,LXF-289; first compound 0.06325 µM,0.373
same,relative viability,LXF-289; first compound 0.2 µM,0.105
same,relative viability,NCI-H1437; first compound 0.002 µM,0.511
same,relative viability,NCI-H1437; first compound 0.006325 µM,0.38
same,relative viability,NCI-H1437; first compound 0.02 µM,0.431
same,relative viability,NCI-H1437; first compound 0.06325 µM,0.247
same,relative viability,NCI-H1437; first compound 0.2 µM,0.0895
same,relative viability,NCI-H1650; first compound 0.002 µM,0.209
same,relative viability,NCI-H1650; first compound 0.006325 µM,0.193
same,relative viability,NCI-H1650; first compound 0.02 µM,0.201
same,relative viability,NCI-H1650; first compound 0.06325 µM,0.222
same,relative viability,NCI-H1650; first compound 0.2 µM,0.194
same,relative viability,NCI-H1666; first compound 0.002 µM,0.871
same,relative viability,NCI-H1666; first compound 0.006325 µM,0.86
same,relative viability,NCI-H1666; first compound 0.02 µM,0.74
same,relative viability,NCI-H1666; first compound 0.06325 µM,0.725
same,relative viability,NCI-H1666; first compound 0.2 µM,0.74
same,relative viability,NCI-H2085; first compound 0.002 µM,0.979
same,relative viability,NCI-H2085; first compound 0.006325 µM,0.94
same,relative viability,NCI-H2085; first compound 0.02 µM,0.818
same,relative viability,NCI-H2085; first compound 0.06325 µM,0.509
same,relative viability,NCI-H2085; first compound 0.2 µM,0.344
same,relative viability,NCI-H2087; first compound 0.002 µM,1.03
same,relative viability,NCI-H2087; first compound 0.006325 µM,0.676
same,relative viability,NCI-H2087; first compound 0.02 µM,0.796
same,relative viability,NCI-H2087; first compound 0.06325 µM,0.141
same,relative viability,NCI-H2087; first compound 0.2 µM,0.142
same,relative viability,NCI-H2126; first compound 0.002 µM,1.09
same,relative viability,NCI-H2126; first compound 0.006325 µM,1.03
same,relative viability,NCI-H2126; first compound 0.02 µM,0.79
same,relative viability,NCI-H2126; first compound 0.06325 µM,1.07
same,relative viability,NCI-H2126; first compound 0.2 µM,0.823
same,relative viability,NCI-H3122; first compound 0.002 µM,1.01
same,relative viability,NCI-H3122; first compound 0.006325 µM,1.01
same,relative viability,NCI-H3122; first compound 0.02 µM,1.05
same,relative viability,NCI-H3122; first compound 0.06325 µM,0.165
same,relative viability,NCI-H3122; first compound 0.2 µM,0.199
same,relative viability,NCI-H441; first compound 0.002 µM,0.566
same,relative viability,NCI-H441; first compound 0.006325 µM,0.446
same,relative viability,NCI-H441; first compound 0.02 µM,0.236
same,relative viability,NCI-H441; first compound 0.06325 µM,0.127
same,relative viability,NCI-H441; first compound 0.2 µM,0.133
same,relative viability,NCI-H596; first compound 0.002 µM,1.03
same,relative viability,NCI-H596; first compound 0.006325 µM,0.915
same,relative viability,NCI-H596; first compound 0.06325 µM,1.07
same,relative viability,NCI-H596; first compound 0.2 µM,0.999
same,relative viability,NCI-H661; first compound 0.002 µM,0.886
same,relative viability,NCI-H661; first compound 0.006325 µM,0.773
same,relative viability,NCI-H661; first compound 0.02 µM,0.685
same,relative viability,NCI-H661; first compound 0.06325 µM,0.527
same,relative viability,NCI-H661; first compound 0.2 µM,0.182
same,relative viability,PC-14; first compound 0.002 µM,0.956
same,relative viability,PC-14; first compound 0.006325 µM,0.788
same,relative viability,PC-14; first compound 0.02 µM,0.988
same,relative viability,PC-14; first compound 0.06325 µM,0.314
same,relative viability,PC-14; first compound 0.2 µM,0.0725
